Data published in the METLIN SMRT retention time set (Domingo-Almenara et al. 2019).

Assay: gradient 5% acetonitrile 3 min, to 50% in 2 min, to 85% in 15 min, held 3 min, 100 µL/min
Details: column: Zorbax Extend-C18 2.1 x 50 mm; eluents: water / acetonitrile, 0.1% formic acid
Procedure, shortened: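 Standards, all pure, were combined into mixtures of ~100 molecules and run at 100 μL/min on a Zorbax Extend-C18 column (2.1 × 50 mm, 1.8 μm) with water and acetonitrile, each containing 0.1% formic acid. A coupled quadrupole time-of-flight mass spectrometer operated in positive and negative ionization mode. Retention time values come from computationally picked adduct peaks, each inspected manually.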

RP-LC retention time [s]	Compound
974	COc1ccccc1Nc1c(-c2ccc(SC)cc2)nc2cnccn12
660	CN1CCN(c2ncc3c(n2)CC(c2cc(F)cc(F)c2)CC3=O)CC1 (stereo unspecified)
952	O=C(Cn1c(=O)c2cccn2c2ccc(F)cc21)NCCC1=CCCCC1
591	COCCNS(=O)(=O)c1cc(-c2[nH]ncc2C(=O)N2CCCC2)oc1C
912	CCc1ccccc1NC(=O)C1CCN(S(C)(=O)=O)c2ccccc2O1 (stereo unspecified)
830	COc1ccccc1-c1noc(C2CCCN2C(=O)c2ccc3cc[nH]c3c2)n1 (stereo unspecified)
696	O=C(NCCc1csc(C2CCCN(C(=O)C3CCCC3)C2)n1)C1CC1 (stereo unspecified)
854	COCCN1C(=O)CCc2cc(NS(=O)(=O)c3ccc4c(c3)CCC4)ccc21
966	CCCCn1cc(S(=O)(=O)Nc2ccc(F)c(F)c2)c2cccnc21
984	COc1cc(NC(=O)C2CCCN(c3nccnc3Sc3ccccc3)C2)cc(OC)c1OC (stereo unspecified)
742	Cc1nnc(-c2sccc2C)o1
860	COC(=O)C1=CN(c2ccc(F)c(F)c2)c2cc(F)ccc2S1(=O)=O
687	Cc1ccsc1C(=O)Nc1ccc2ncnc(N3CCCCC3)c2c1
708	COC(=O)c1ncn2c1C(=O)N(c1cccc(C)c1C)C(C)(C(=O)NCc1ccccc1)C2 (stereo unspecified)
836	Cc1cc(C(=O)N2CC(c3nc(Cc4ccccc4)no3)C2)c(C)o1
1010	Cc1ccc(-c2nc(NC(=O)C(C)C)sc2C)cc1
613	Cc1cc(C)n2nc(SCC(=O)NC(C)C)nc2n1
1290	CC1CCN(S(=O)(=O)c2ccc(C(=O)Nc3nc4c(s3)CCc3ccccc3-4)cc2)CC1
766	COc1ccc(Cl)cc1NC(=O)Nc1ccc2c(c1)C(=O)N(C)CCO2
662	c1ccc(Sc2ncccn2)nc1
728	COc1cccc(N2CCN(c3ccnc(SCC(=O)Nc4ccc5c(c4)OCO5)n3)CC2)c1
631	CCOC(=O)N1CCC(NC(=O)c2nc(-c3cnccn3)no2)CC1
657	Cc1nc(-c2cn(C(C)C)c3ncccc23)sc1C(=O)NCc1cccnc1

RP-LC retention time [s]	Compound
975	CCS(=O)(=O)c1nc2ccc(NS(=O)(=O)c3ccc(C(C)C)cc3)cc2s1
601	CCn1c(=O)c2ccccc2n(CC(=O)N2CCC(C(N)=O)CC2)c1=O
903	Cc1ccccc1-c1nc(C)c(C(=O)NC(C)C)s1
642	Cc1nn(CC(=O)NCCCN2CCCC2=O)c(=O)c2nn(-c3ccccc3)c(C)c12
899	COc1ccc(C(C)NC(=O)C2=C3CCCN3c3ccc(F)cc3S2(=O)=O)cc1 (stereo unspecified)
662	CCOc1ccc(S(=O)(=O)N2CCC(C(=O)NCc3ccncc3)CC2)cc1C
690	CCOC(=O)C1C(=O)NC(N2CCc3ccccc32)=NC1c1ccco1 (stereo unspecified)
850	O=C(NCc1ccccc1)C1c2ccccc2CC(=O)N1Cc1ccccc1 (stereo unspecified)
634	O=C(CN1CC(c2nc(-c3cccnc3)no2)C1)Nc1cc(C(F)(F)F)ccc1Cl
644	O=C(NC1CCCC1)N1CCN(Cc2nc3cc(C(=O)N4CCCCC4)ccc3o2)CC1
1040	CCOC(=O)c1noc2ncnc(NCc3cccc(Cl)c3)c12
1150	Cc1oc(C(C)C)nc1C(=O)Nc1ccc(Cl)cc1
1000	O=C(C1CCCN(c2ncnc3c2nc2n3CCCCC2)C1)N1CCC(Cc2ccccc2)CC1 (stereo unspecified)
890	Cc1cc(-c2cc(S(=O)(=O)NCC(C)c3ccccc3)c(C)s2)n[nH]1 (stereo unspecified)
815	CCn1cc(C)c(C(=O)O)c1CC(=O)N1CCc2ccccc21
805	CCOC(=O)c1ccc(NC(=O)C2CCN(C(=O)C3Sc4ccccc4NC3=O)CC2)cc1 (stereo unspecified)
1030	CCCNc1nc(-c2cccc(Br)c2)cs1
814	COc1cc(C(=O)N(C)CCc2noc(C3CCCCC3)n2)cc(OC)c1OC
701	Cc1cc(=O)n(CC(=O)NCCc2ccc(Cl)cc2)c(N2CCOCC2)n1
657	COc1ccc(NS(=O)(=O)c2cc3n(c2)CCN(C)C3=O)cc1
799	Cc1nc(C)c(C(=O)Nc2ccc(F)cc2C)s1
734	COC(=O)c1ncn2c1C(=O)N(Cc1ccccc1)C(C)(C(=O)NCc1ccc(C)cc1)C2 (stereo unspecified)
790	Cc1cccc(NC(=O)C2CCN(C(=O)C3Sc4ccccc4NC3=O)CC2)c1 (stereo unspecified)

RP-LC retention time [s]	Compound
980	CCOc1ccc(-c2noc(Cn3cnc4c(cnn4-c4ccccc4)c3=O)n2)cc1OC
610	Cc1c(-c2nnc(C3CC3)o2)c(S(=O)(=O)N2CCN(C(C)C)CC2)c(C)n1C
970	COC(=O)c1cc(C)nc2c1c(=O)n(Cc1cccc(OC)c1)c(=O)n2C
1250	Cc1ccsc1C(=O)N1CC(Oc2ccc(-c3nc(-c4ccccc4)no3)cc2)C1
940	O=C1CC(c2nc(-c3ccccc3)no2)CN1c1ccc(F)cc1 (stereo unspecified)
1130	CCOc1ccc(NC(=O)c2cn(-c3cc(N4CCCC(C)C4)ncn3)cn2)cc1 (stereo unspecified)
692	CCCN1CCN(C(=O)C(C)n2nc(C)c3nn(-c4ccccc4)c(-n4cccc4)c3c2=O)CC1 (stereo unspecified)
557	Cc1cc(C(=O)NCC(c2cn(C)c3ccccc23)N(C)C)no1 (stereo unspecified)
708	CC(C)CNC(=O)c1ccc2c(c1)N(C)C(=O)CS2
624	Cc1csc(C(=O)N2CC3CC2C(=O)O3)c1 (stereo unspecified)
654	Cc1nnc(-c2coc(S(=O)(=O)N3CCOCC3)c2)o1
573	COCC(=O)N1CCC(N2C[C@H](O)C[C@H]2C(=O)NC2CCCCC2)CC1
1200	Cc1ccc(-c2noc(Cc3nnc(-c4ccc(C)c(C)c4)o3)n2)cc1
986	CCOC(=O)C1CCCN(c2c(N3CCC(Cc4ccccc4)CC3)c(=O)c2=O)C1 (stereo unspecified)
649	O=C(NC1CC1)[C@@H]1C[C@H](Oc2ccccc2)CN1C(=O)c1ccc2ncccc2c1
743	Cc1cc(C)n2c(Nc3c(C)cccc3C)c(-c3ccccc3)nc2n1
642	Cc1cc(Cl)ccc1S(=O)(=O)N1CCC2(CCC(CN3CCN(C)CC3)O2)CC1 (stereo unspecified)
638	CN1C(=O)C2CCCCN2c2ccc(C(=O)N3CCN(Cc4ccc5c(c4)OCO5)CC3)cc21 (stereo unspecified)
648	CCOC(=O)Nc1c(Cl)n(C)c(=O)n(C)c1=O
614	Cc1nn(CC(=O)NCc2cccnc2)c(=O)c2nc(-c3ccccc3)sc12
846	CC1=C(c2ccc(C)cc2)S(=O)(=O)N=C1N1CCCN(C(=O)c2ccccc2F)CC1
848	CCN(CC)S(=O)(=O)c1ccc2c(c1)CC(C(=O)NCCC(C)C)N2C(C)=O (stereo unspecified)
947	CC1CCN(c2nc(-c3ccc(Cl)cc3)nc3ccccc23)CC1

RP-LC retention time [s]	Compound
683	CC1CCCN(C(=O)C2CCN(c3cc(N4CCCCC4)ncn3)CC2)C1 (stereo unspecified)
686	O=C(Nc1cccc(F)c1)Nc1ccc2nncn2c1
577	NC(=O)C1CCN(C(=O)CCn2cnc3cc(S(=O)(=O)N4CCCC4)ccc32)CC1
668	O=C(Cn1nc2c(N3CCCCCC3)nccn2c1=O)Nc1ccc2c(c1)OCCO2
799	CC(C)n1cnc(S(=O)(=O)N2CCCC(C(=O)NCc3ccc(Cl)cc3)C2)c1 (stereo unspecified)
624	CCNC(=O)C1CCN(S(=O)(=O)c2c(C)[nH]c(C)c2C(=O)N2CCCCC2)CC1
637	CC(C)C(=O)N1CCc2cc(C(N)=O)ccc21
576	CCN1CCN(C(=O)CC2Sc3ncccc3N(CC)C2=O)CC1 (stereo unspecified)
756	O=S(=O)(c1cccc(Cl)c1)N1CCN(c2cnn3c(C4CC4)nnc3c2)CC1
670	CC1=C(C(=O)N2CCOCC2)C(c2ccc(Br)cc2)C2=C(CCCC2=O)N1 (stereo unspecified)
868	COc1ccc(CCC(=O)N2CCCC2c2c(C)noc2C)cc1 (stereo unspecified)
765	Cc1cn(C)c(CC(=O)NC2CCCCCC2)c1C(=O)O
866	CCOC(=O)C(=O)Nc1ccc(SCc2nnc(-c3ccc4c(c3)OCO4)o2)cc1
700	O=C(NC1CC1)[C@@H]1C[C@H](Oc2ccccc2)CN1C(=O)c1ccco1
987	O=c1n(Cc2cccc(F)c2)nc2ccc(S(=O)(=O)N3CCc4ccccc4C3)cn12
760	Cc1nc(-c2noc(-c3ccncc3)n2)cn1CC(=O)Nc1cccc(Cl)c1
649	CSc1ncccc1-c1nc(-c2ccc3c(c2)ncn3CCN2CCCCC2)no1
911	COc1ccc(CC(=O)N2CCCC2c2nc(-c3ccc(OC)c(OC)c3)no2)cc1Cl (stereo unspecified)
971	CCCCC(=O)N1C[C@H](c2nc(-c3ccccc3)no2)[C@@H](C)C1
870	Cc1cc(N2CCN(c3ccccn3)CC2)n2nc(C(F)(F)F)c(-c3ccc(F)cc3)c2n1

Compound	RP-LC retention time [s]
O=C(Nc1ccccc1)N1[C@H]2CC[C@@H]1c1cncnc1C2	651
C=C1C(=O)OC2C1CCC(C)C1(O)C=CC(=O)C21C (stereo unspecified)	722
